Results published in patent US12448367B2, “Phthalazine derivatives as pyruvate kinase modulators” (Sitryx Therapeutics Limited, priority 2022, dated 2025).
Values joined by “and” are separate entries in the source; they are usually repeats but may differ in a detail not shown here. Equal entries are not always repeated.

Experiments:
[1] = biological target: T1, pyruvate kinase in human CD4+ T cell lysates (Homo sapiens, UniProt P14618); test: CD4+ T cell pyruvate kinase assay (PK activity in lysates of compound-treated cells); assay type: cell-based; details: primary human CD4+ T cells incubated with compound 20 minutes, washed, lysed; ΔAbsorbance OD570 nm
T1 construct: endogenous in cells; host or cells: primary human CD4+ T cells
Protocol: Measuring Pyruvate Kinase (PK) Activity in Human CD4+ T Cell Lysates
Compound activation of pyruvate kinase in human CD4+ T cell lysates was determined by biochemical assay. Primary CD4+ T cells were used rather than cancer cell lines to improve the disease relevance of the assay. The PK assay was sourced from Abcam. All other reagents were sourced from ThermoFisher. Test compounds were prepared as 10 mM DMSO stocks and dilution series prepared in DMSO for addition to intact CD4+ T cells cultured in RPMI media containing 10% FBS.
Human CD4+ T cells were incubated with compound for 20 minutes and then washed twice in 1×PBS before resuspension in Abcam PK lysis buffer to prepare cell lysates. 10 μl PK assay Reaction Mix was added per well, including OXIRED™ PROBE. The plates were read using a BMG Labtech Pherastar plate reader at OD570 nm in kinetic mode for […] (25 cycles of 2 minutes) at 25° C., protecting from light.
Plates were blank-subtracted and ΔAbsorbance calculated by subtracting the first plate read within the linear range from the plate read at the timepoint of interest. PK activity is expressed as ΔAbsorbance and plotted against log [Compound].

[2] = biological target: T2, recombinant human PKM2 (Homo sapiens, UniProt P14618); test: Human PKM2 activation assay (Kinase-Glo Plus luminescence, ATP generated); assay type: biochemical; details: * = repeat experiments; for EC50: activation of N-terminal His-tagged hPKM2, 4-parameter logistic fit; for Emax: read-out: hPKM2 Emax
T2 construct: His (N); purchased R&D Systems
Protocol: Measuring In Vitro Activation of Recombinant Human PKM2
(§1) Compound activation of recombinant human PKM2 pyruvate kinase activity was determined by biochemical assay. N-terminal His-tagged hPKM2 was sourced from R&D Systems and its substrates phosphoenolpyruvate (PEP) and ADP from Sigma-Aldrich and 2Bscientific Ltd, respectively. The Kinase-Glo® Plus luminescence assay was from Promega. All other reagents were from Sigma-Aldrich. Test Compounds were prepared as 10 mM DMSO stocks and dilution series prepared in DMSO for direct dilution into Assay Buffer comprising 50 mM imidazole, 50 mM KCl, 7 mM MgCl2, 0.01% Tween20, 0.05% BSA (pH 7.2).
Human PKM2 was diluted into Assay Buffer comprising 50 mM imidazole, 50 mM KCl, 7 mM MgCl2, 0.01% Tween20, 0.05% BSA (pH 7.2) to a final concentration of […]. Enzyme-Assay Buffer mix was dispensed into a 384-well shallow-well white-walled plate (PerkinElmer) and Test Compounds added by acoustic dispense (Echo®, Labcyte Inc.).
(§2) After 60 minutes' incubation on an orbital shaker (300 rpm, 26° C.), enzyme activity was quantified by the luminescent detection of generated ATP. Kinase-Glo® Plus reagent was added to each well and the plates incubated for a further 15 minutes on an orbital shaker in the dark (300 rpm, 26° C.) before luminescence measurement on a plate reader (PHERAstar® FSX, BMG Labtech).
(§3) Percentage activation was calculated by normalising […] signals to plate LOW (DMSO vehicle) and HIGH (5 μM TEPP-46) controls. EC50 and Emax values were determined from 4-parameter logistic fits of compound concentration-response curves.

[3] = biological target: T3, recombinant human PKLR (Homo sapiens, UniProt P30613); test: Human PKLR activation assay (Kinase-Glo Plus luminescence, ATP generated); assay type: biochemical; details: * = repeat experiments; for EC50: activation of N-terminal His-tagged hPKLR, 4-parameter logistic fit; for Emax: read-out: hPKLR Emax
T3 construct: His (N); purchased R&D Systems
Protocol: Biological Example 2—Human PKLR Activation Assay
Measuring In Vitro Activation of Recombinant Human PKLR
as §1, with “PKLR” for “PKM2”, “enzyme” for “hPKM2”
Human PKLR was diluted into Assay Buffer to a final concentration of 5 μM. Enzyme-Assay Buffer mix was dispensed into 384-well shallow-well white-walled plates and Test Compounds added by acoustic dispense (Echo®, Labcyte Inc). Following 10 minutes' incubation at room temperature, the enzyme reaction was initiated by acoustic dispensing of ADP+PEP substrate to final concentrations of 254 μM ADP and 53 μM […].
as §2, §3

[4] = percentage activation normalised to DMSO (LOW) and 5 μM TEPP-46 (HIGH)

T1 sequence (P14618 2-531 limits assumed): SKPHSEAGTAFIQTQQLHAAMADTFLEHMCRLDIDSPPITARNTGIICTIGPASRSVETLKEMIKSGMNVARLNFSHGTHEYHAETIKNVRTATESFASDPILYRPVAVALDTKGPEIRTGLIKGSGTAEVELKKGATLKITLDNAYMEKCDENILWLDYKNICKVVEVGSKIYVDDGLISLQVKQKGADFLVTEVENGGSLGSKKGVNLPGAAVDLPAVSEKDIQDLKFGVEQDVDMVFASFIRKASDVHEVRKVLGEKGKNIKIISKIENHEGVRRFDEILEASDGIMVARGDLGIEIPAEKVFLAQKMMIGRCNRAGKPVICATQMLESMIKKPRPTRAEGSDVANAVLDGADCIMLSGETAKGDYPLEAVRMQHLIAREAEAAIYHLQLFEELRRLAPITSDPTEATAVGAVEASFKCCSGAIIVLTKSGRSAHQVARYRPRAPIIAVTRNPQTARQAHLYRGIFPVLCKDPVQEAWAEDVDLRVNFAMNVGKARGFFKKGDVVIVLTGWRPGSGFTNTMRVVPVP
T2 sequence (P14618 whole entry): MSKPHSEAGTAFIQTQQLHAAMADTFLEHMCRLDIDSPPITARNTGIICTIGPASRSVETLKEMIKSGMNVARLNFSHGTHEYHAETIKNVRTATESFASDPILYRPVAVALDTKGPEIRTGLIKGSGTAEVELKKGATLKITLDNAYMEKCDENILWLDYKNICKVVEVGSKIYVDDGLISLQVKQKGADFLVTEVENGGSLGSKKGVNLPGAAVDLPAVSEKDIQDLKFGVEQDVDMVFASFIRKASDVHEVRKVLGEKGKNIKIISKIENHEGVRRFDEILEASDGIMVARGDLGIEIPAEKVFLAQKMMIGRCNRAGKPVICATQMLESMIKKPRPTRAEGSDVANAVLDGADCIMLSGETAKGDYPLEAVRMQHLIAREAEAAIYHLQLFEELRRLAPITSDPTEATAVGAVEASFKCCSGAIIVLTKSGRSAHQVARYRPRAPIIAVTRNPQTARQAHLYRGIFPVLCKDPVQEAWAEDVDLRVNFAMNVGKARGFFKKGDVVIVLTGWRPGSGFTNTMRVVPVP
T3 sequence (P30613 whole entry): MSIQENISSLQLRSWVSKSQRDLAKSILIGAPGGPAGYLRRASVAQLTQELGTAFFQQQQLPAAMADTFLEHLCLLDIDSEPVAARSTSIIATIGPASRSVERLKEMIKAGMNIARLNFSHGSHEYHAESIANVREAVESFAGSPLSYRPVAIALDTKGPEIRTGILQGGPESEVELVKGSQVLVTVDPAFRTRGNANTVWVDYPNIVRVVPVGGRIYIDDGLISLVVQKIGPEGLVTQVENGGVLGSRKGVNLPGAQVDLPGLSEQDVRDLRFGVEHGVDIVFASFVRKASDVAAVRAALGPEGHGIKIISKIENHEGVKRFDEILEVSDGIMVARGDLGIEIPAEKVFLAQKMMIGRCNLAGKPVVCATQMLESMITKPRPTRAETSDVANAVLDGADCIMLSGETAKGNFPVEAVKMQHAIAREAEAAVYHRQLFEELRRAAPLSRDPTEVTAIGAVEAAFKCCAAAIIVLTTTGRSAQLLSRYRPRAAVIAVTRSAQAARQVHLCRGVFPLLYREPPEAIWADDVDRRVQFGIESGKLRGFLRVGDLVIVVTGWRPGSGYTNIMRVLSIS

Row | SMILES | EC50 [1] [µM] | EC50 [2] | Emax [2, 4] [%] | EC50 [3] | Emax [3, 4] [%] | hPKM2 Emax [2, 4] | hPKLR Emax [3, 4]
1 | O=c1c2ccc(S(=O)(=O)c3cn[nH]c3)cc2cnn1Cc1cc2n(n1)CCO2 [Example 4, 6-((1H-pyrazol-4-yl)sulfonyl)-2-((2,3-dihydropyrazolo[5,1-b]oxazol-6-yl)methyl)phthalazin-1(2H)-one] | 0.125 | 0.051 µM | 91 | 0.0064 µM | 122 |  | 
2 | Cn1cc(S(=O)(=O)c2ccc3c(=O)n(Cc4cc5n(n4)CCO5)ncc3c2)cn1 [Example 5, 2-((2,3-dihydropyrazolo[5,1-b]oxazol-6-yl)methyl)-6-((1-methyl-1H-pyrazol-4-yl)sulfonyl)phthalazin-1(2H)-one] | 0.093 | 0.0989 µM and 0.207 µM | 110 | 0.0233 µM and 0.0276 µM | 121 | 104* % | 128* %
3 | Cc1[nH]nc(Cn2ncc3cc(S(=O)(=O)c4cc[nH]n4)ccc3c2=O)c1Cl [Example 6, 6-((1H-pyrazol-3-yl)sulfonyl)-2-((4-chloro-5-methyl-1H-pyrazol-3-yl)methyl)phthalazin-1(2H)-one] | 0.094 | 0.043 µM | 94 |  |  |  | 

Continued by falling EC50 [1], values first:

Row | EC50 [1] [µM] | EC50 [2] | Emax [2, 4] [%] | EC50 [3] | Emax [3, 4] [%] | hPKM2 Emax [2, 4] | hPKLR Emax [3, 4] | SMILES
4 | 0.168 | 0.104 µM | 100 | 0.0331 µM | 123 |  |  | O=c1c2ccc(S(=O)(=O)c3cnn(C(F)F)c3)cc2cnn1Cc1cc[nH]n1 [Example 2, 2-((1H-pyrazol-3-yl)methyl)-6-((1-(difluoromethyl)-1H-pyrazol-4-yl)sulfonyl)phthalazin-1(2H)-one]
5 | 0.097 | 0.114 µM | 111 | 0.016 µM | 119 |  |  | COc1ccc(Cn2ncc3cc(S(=O)(=O)c4cn[nH]c4)ccc3c2=O)nc1 [Example 1, 6-((1H-pyrazol-4-yl)sulfonyl)-2-((5-methoxypyridin-2-yl)methyl)phthalazin-1(2H)-one]
6 | 0.07 | 0.05 µM | 108 | 0.0066 µM | 118 |  |  | O=c1c2ccc(S(=O)(=O)c3cnn(CCO)c3)cc2cnn1Cc1ccc2c(n1)CCO2 [Example 3, 2-((2,3-dihydrofuro[3,2-b]pyridin-5-yl)methyl)-6-((1-(2-hydroxyethyl)-1H-pyrazol-4-yl)sulfonyl)phthalazin-1(2H)-one]
